Source: PubChem BioAssay (NCI)
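Five concentrations, 48 hours, 96-well plates. TGI: concentration producing complete growth inhibition.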

Legend:
Assay in all cases: NCI tumour cell line growth inhibition, 48 h
SR leukemia = test system: SR leukemia
OVCAR-5 ovarian = test system: OVCAR-5 ovarian
K-562 leukemia = test system: K-562 leukemia
NCI-H23 lung = test system: NCI-H23 lung
UACC-62 melanoma = test system: UACC-62 melanoma
SK-MEL-2 melanoma = test system: SK-MEL-2 melanoma
COLO 205 colon = test system: COLO 205 colon
HOP-92 NSCLC = test system: HOP-92 NSCLC
HCC-2998 colon = test system: HCC-2998 colon
NCI-H522 lung = test system: NCI-H522 lung
NCI-H226 lung = test system: NCI-H226 lung
SK-OV-3 ovarian = test system: SK-OV-3 ovarian
NCI-H460 lung = test system: NCI-H460 lung
OVCAR-3 ovarian = test system: OVCAR-3 ovarian
SF-268 CNS = test system: SF-268 CNS
MCF7 breast = test system: MCF7 breast
KM12 colon = test system: KM12 colon
MALME-3M melanoma = test system: MALME-3M melanoma
T-47D breast = test system: T-47D breast
SF-539 CNS = test system: SF-539 CNS
TK-10 renal = test system: TK-10 renal
HCT-15 colon = test system: HCT-15 colon
HOP-62 NSCLC = test system: HOP-62 NSCLC
SN12C renal = test system: SN12C renal
ACHN renal = test system: ACHN renal
BT-549 breast = test system: BT-549 breast
HT29 colon = test system: HT29 colon
IGROV1 ovarian = test system: IGROV1 ovarian
M14 melanoma = test system: M14 melanoma
SNB-75 CNS = test system: SNB-75 CNS
DU-145 prostate = test system: DU-145 prostate
786-0 renal = test system: 786-0 renal
RXF 393 renal = test system: RXF 393 renal
CCRF-CEM leukemia = test system: CCRF-CEM leukemia
SK-MEL-28 melanoma = test system: SK-MEL-28 melanoma
OVCAR-8 ovarian = test system: OVCAR-8 ovarian
MOLT-4 leukemia = test system: MOLT-4 leukemia
PC-3 prostate = test system: PC-3 prostate
EKVX NSCLC = test system: EKVX NSCLC
SF-295 CNS = test system: SF-295 CNS
UACC-257 melanoma = test system: UACC-257 melanoma
OVCAR-4 ovarian = test system: OVCAR-4 ovarian
UO-31 renal = test system: UO-31 renal
CAKI-1 renal = test system: CAKI-1 renal
HCT-116 colon = test system: HCT-116 colon
MDA-MB-231 breast = test system: MDA-MB-231 breast
LOX IMVI melanoma = test system: LOX IMVI melanoma
NCI/ADR-RES ovarian = test system: NCI/ADR-RES ovarian
SK-MEL-5 melanoma = test system: SK-MEL-5 melanoma
SNB-19 CNS = test system: SNB-19 CNS
U251 CNS = test system: U251 CNS
MDA-N = test system: MDA-N
MDA-MB-435 = test system: MDA-MB-435
SW-620 colon = test system: SW-620 colon
HL-60(TB) leukemia = test system: HL-60(TB) leukemia
A498 renal = test system: A498 renal
A549 NSCLC = test system: A549 NSCLC
RPMI-8226 leukemia = test system: RPMI-8226 leukemia
HS 578T breast = test system: HS 578T breast

Measured: TGI

CC(=O)[C@H]1[C@H](O)C[C@@]2(C)[C@@H]3CCc4cc(O)c(OC5OC(CO)C(O)C(O)C5O)cc4C3(C)C(=O)C[C@]12C (stereo partly specified)
> 100 µM: SR leukemia | OVCAR-5 ovarian | K-562 leukemia | NCI-H23 lung | UACC-62 melanoma | SK-MEL-2 melanoma | COLO 205 colon | HOP-92 NSCLC | HCC-2998 colon | NCI-H522 lung | NCI-H226 lung | SK-OV-3 ovarian | NCI-H460 lung | OVCAR-3 ovarian | SF-268 CNS | MCF7 breast | KM12 colon | MALME-3M melanoma | T-47D breast | SF-539 CNS | TK-10 renal | HCT-15 colon | HOP-62 NSCLC | SN12C renal | ACHN renal | BT-549 breast | HT29 colon | IGROV1 ovarian | M14 melanoma | SNB-75 CNS | DU-145 prostate | 786-0 renal | RXF 393 renal | CCRF-CEM leukemia | SK-MEL-28 melanoma | OVCAR-8 ovarian | MOLT-4 leukemia | PC-3 prostate | EKVX NSCLC | SF-295 CNS | UACC-257 melanoma | OVCAR-4 ovarian | UO-31 renal | CAKI-1 renal | HCT-116 colon | MDA-MB-231 breast | LOX IMVI melanoma | NCI/ADR-RES ovarian | SK-MEL-5 melanoma | SNB-19 CNS | U251 CNS | MDA-N | MDA-MB-435 | SW-620 colon | HL-60(TB) leukemia | A498 renal | A549 NSCLC

C[C@@H]1CC[C@@H]2[C@@H](C1)O[C@@H]([C@@H](C)OCc1ccccc1)SC2(C)C
45.4 µM: PC-3 prostate
37.7 µM: M14 melanoma
30.7 µM: RXF 393 renal
36.3 µM: MDA-N
34.9 µM: SR leukemia
> 100 µM: DU-145 prostate
39.9 µM: UACC-257 melanoma
55.4 µM: TK-10 renal
58.8 µM: OVCAR-8 ovarian
35.3 µM: MCF7 breast
31.6 µM: ACHN renal
32 µM: A498 renal
31.2 µM: SF-295 CNS
51.8 µM: SF-268 CNS
31.3 µM: SK-MEL-5 melanoma
31 µM: SK-MEL-2 melanoma
51.5 µM: NCI-H23 lung
32.7 µM: COLO 205 colon
38.2 µM: MDA-MB-231 breast
37.9 µM: MALME-3M melanoma
35.4 µM: RPMI-8226 leukemia
40.2 µM: NCI/ADR-RES ovarian
35.8 µM: MDA-MB-435
67.4 µM: EKVX NSCLC
83.4 µM: A549 NSCLC
60.4 µM: SK-MEL-28 melanoma
43.2 µM: UACC-62 melanoma
33.6 µM: SF-539 CNS | SNB-19 CNS
34 µM: SNB-75 CNS | 786-0 renal | SW-620 colon
36.7 µM: HT29 colon
34.5 µM: NCI-H226 lung | CCRF-CEM leukemia | HCT-116 colon
33.7 µM: HCC-2998 colon
30.6 µM: UO-31 renal
29 µM: CAKI-1 renal
32.9 µM: OVCAR-5 ovarian
63.3 µM: IGROV1 ovarian
42.6 µM: BT-549 breast
49.1 µM: NCI-H460 lung
59.9 µM: SK-OV-3 ovarian
34.4 µM: KM12 colon
36.8 µM: HCT-15 colon
69.7 µM: OVCAR-4 ovarian
41.9 µM: LOX IMVI melanoma
32.6 µM: U251 CNS
32.3 µM: HOP-62 NSCLC | SN12C renal | MOLT-4 leukemia
36 µM: K-562 leukemia
32.4 µM: T-47D breast
31.1 µM: NCI-H522 lung

COc1ccc(N2C(=O)C(=O)C3(CCCCC3)C2=O)c2ccccc12
> 10 µM: SR leukemia | OVCAR-5 ovarian | K-562 leukemia | HS 578T breast | NCI-H23 lung | RPMI-8226 leukemia | UACC-62 melanoma | SK-MEL-2 melanoma | COLO 205 colon | HCC-2998 colon | NCI-H522 lung | NCI-H226 lung | SK-OV-3 ovarian | NCI-H460 lung | SF-268 CNS | MCF7 breast | KM12 colon | MALME-3M melanoma | T-47D breast | SF-539 CNS | TK-10 renal | HCT-15 colon | HOP-62 NSCLC | SN12C renal | ACHN renal | HT29 colon | IGROV1 ovarian | M14 melanoma | SNB-75 CNS | DU-145 prostate | RXF 393 renal | CCRF-CEM leukemia | SK-MEL-28 melanoma | OVCAR-8 ovarian | MOLT-4 leukemia | PC-3 prostate | EKVX NSCLC | SF-295 CNS | OVCAR-4 ovarian | UO-31 renal | CAKI-1 renal | HCT-116 colon | MDA-MB-231 breast | LOX IMVI melanoma | NCI/ADR-RES ovarian | SK-MEL-5 melanoma | SNB-19 CNS | U251 CNS | MDA-N | MDA-MB-435 | SW-620 colon | HL-60(TB) leukemia | A498 renal | A549 NSCLC
